Key:
ODC = target: T1, ODC (Homo sapiens, UniProt P11926); experiment: ODC enzyme assay with recombinant ODC protein; assay type: biochemical; conditions: in vitro
T1 sequence (P11926 1-461): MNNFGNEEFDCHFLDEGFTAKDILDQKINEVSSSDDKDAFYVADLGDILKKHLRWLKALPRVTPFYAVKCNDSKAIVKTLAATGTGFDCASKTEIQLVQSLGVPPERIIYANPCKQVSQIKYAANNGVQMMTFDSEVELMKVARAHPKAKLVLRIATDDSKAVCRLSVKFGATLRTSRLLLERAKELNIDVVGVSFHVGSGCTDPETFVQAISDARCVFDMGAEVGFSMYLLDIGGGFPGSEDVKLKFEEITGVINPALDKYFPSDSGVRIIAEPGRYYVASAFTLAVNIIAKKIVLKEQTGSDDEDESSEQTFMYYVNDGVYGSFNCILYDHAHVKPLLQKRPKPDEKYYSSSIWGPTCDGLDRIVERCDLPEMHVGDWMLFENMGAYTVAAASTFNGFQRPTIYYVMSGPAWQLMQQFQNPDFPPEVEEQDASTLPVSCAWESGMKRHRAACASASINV
Method: FIGS. 5A-5E. The effect of herbacetin on ODC activity was assessed in (a) DLD-1 and (b) HCT116 colon cancer cells. Cell lysates were incubated for 15 min with reaction buffer and different doses of herbacetin or DFMO and then incubated at 37° C. for 1 h. Herbacetin (c) and kaempferol (d) were modeled as allosteric inhibitors with the ODC crystal structure. (e) The effect of herbacetin or kaempferol on ODC activity was assessed using a human ODC recombinant protein. Each reaction was incubated at 37° C. for 1 h and ODC activity was measured as the release of CO2 from L-[1-C^14] ornithine. Data are represented as means±S.D. of triplicate values. The asterisk (*) indicates a significant difference (p<0.05) between herbacetin-treated samples compared to untreated or kaempferol-treated samples.
ODC activity was measured as the release of CO2 from L-[1-C^14] ornithine as previously described ([…]).

[1] = test system: JB6 mouse epidermal skin cells; experiment: proliferation and colony formation of JB6 mouse epidermal skin cells; assay type: cell-based; conditions: preliminary data
Method: (§1) FIGS. 3A-3H. Anticancer effect of herbacetin. (a) The effect of herbacetin on ODC activity in colon cancer cell lines was measured as the release of CO2 from L-[1-C^14] ornithine. […] (b) The effect of herbacetin and DFMO on the growth of colon cancer cells and (c) TPA-induced JB6 cell growth was compared. Cells were incubated for 72 h and growth was estimated using the MTS assay. (d) The effect of herbacetin on anchorage independent HCT116 colon cancer cell growth and (e) TPA-induced JB6 cell transformation was assessed. Cells were incubated for 2 weeks and then colonies were counted using a microscope and the Image-Pro PLUS (v.6) computer software program. The effect of herbacetin on AP-1 reporter activity in (f) HCT116 colon cancer cells and (g) TPA-induced AP-1 reporter activity in JB6 mouse epidermal cells was analyzed using the substrates included in the reporter assay system. Data are represented as means±S.D. of triplicate values from three independent experiments and the asterisk (*) indicates a significant (p<0.05) effect of herbacetin or DFMO compared to untreated or TPA-treated controls. (h) The effect of herbacetin on the phosphorylation of ERK1 and ERK2 in HCT116 colon cancer cells was determined by Western blotting. Similar results were observed from two independent experiments.

[2] = test system: HCT116 colon cancer cells; experiment: anchorage independent HCT116 colon cancer cell growth; assay type: cell-based
Method: as §1

ERK1/2, p90^RSK = experiment: Western blotting of ERK1/2 and p90RSK phosphorylation in HCT116 cells; assay type: cell-based
Method: as §1, with “Data are represented as means±S.D. of triplicate values from three independent experiments and the asterisk (*) indicates a significant (p<0.05) effect of herbacetin or DFMO compared to untreated or TPA-treated controls.” left out, “Similar results were observed from two independent experiments.” left out
(§2) We determined whether herbacetin affected the reporter activity of the MAP kinase target transcription factor, activator protein-1 (AP-1), in HCT116 cells or JB6 cells stimulated with TPA. […] AP-1 reporter activity was then measured (FIG. 3f, g) and the activity was attenuated by herbacetin in colon cancer cells and in TPA-activated JB6 cells. […]

[3] = test system: HCT116, DLD1, HT29 colon cancer cells; experiment: growth of colon cancer cells, MTS assay; assay type: cell-based
Method: as §1

[4] = test system: activator protein-1 (AP-1); experiment: AP-1 reporter activity in HCT116 cells; assay type: cell-based; conditions: HCT116 cells treated 48 h
Method: as §1, with “Data are represented as means±S.D. of triplicate values from three independent experiments and the asterisk (*) indicates a significant (p<0.05) effect of herbacetin or DFMO compared to untreated or TPA-treated controls.” left out, “Similar results were observed from two independent experiments.” left out
as §2

[5] = test system: SKH-1 hairless mice, solar UV-induced skin tumors; experiment: solar UV induced-skin tumor mouse model; assay type: in vivo; conditions: herbacetin 100 or 500 nmol topical for 7 weeks; relative to vehicle group
Method: Mice were exposed to solar-UV (48 kJ/UVA, 2.9 kJ/UVB) 3 times weekly for 12 weeks. The solar UV treatment was discontinued and at twenty weeks later, mice were topically treated with 100 or 500 nmol of herbacetin (in acetone) for an additional 7 weeks. Mice (8-9 weeks old) were divided into three groups: 1) solar UV+vehicle group (n=4); 2) solar UV+100 nmol of herbacetin (n=4) group; 3) solar UV+500 nmol of herbacetin (n=4). The volume of tumors per mouse was recorded weekly.

[6] = test system: activator protein-1, Cox2, NF-kappaB; experiment: promoter activities (preliminary data); assay type: cell-based
ERKs/RSK2 signaling = experiment: TPA- or EGF-induced phosphorylation of ERK1 and ERK2 in JB6 cells, Western blotting; assay type: cell-based, mouse; conditions: herbacetin 2 h then TPA or EGF 15 min
Method: FIGS. 6A-6B. The effect of herbacetin on (a) TPA- or (b) EGF-induced phosphorylation of ERK1 and ERK2 in JB6 mouse epidermal cells was analyzed by Western blotting. Serum-starved (0.1% FBS; 24 h) cells were treated with various doses of herbacetin for 2 h followed by treatment with TPA for 15 min.
We determined whether herbacetin affected the reporter activity of the MAP kinase target transcription factor, activator protein-1 (AP-1), in HCT116 cells or JB6 cells stimulated with TPA. HCT116 cells were treated with herbacetin for 48 hand JB6 cells were pre-treated with herbacetin for 2 h before stimulation with TPA for 48 h. AP-1 reporter activity was then measured (FIG. 3f, g) and the activity was attenuated by herbacetin in colon cancer cells and in TPA-activated JB6 cells. […] We next examined whether herbacetin directly suppresses phosphorylation of ERK1/2. JB6 cells were treated with TPA or EGF for 15 min after pre-treatment with herbacetin for 2 h and protein expression was analyzed by Western blotting (Supplementary FIG. 2a,b).

[7] = test system: HCT116 colon cancer cells; experiment: cDNA microarray of HCT116 colon cancer cells; assay type: cell-based; conditions: HCT116, 1 or 2 days herbacetin
Method: FIGS. 7A-7D. Profiling of gene expression in HCT116 colon cancer cells treated with herbacetin 1 or 2 days was assessed by microarray. […] (d) RT-PCR validation of differentially expressed genes.
RNA samples from cells treated or not treated for 1 or 2 days with herbacetin were used. Data were analyzed using hierarchical clustering and the DAVID database as previously described (Sturn, A., Quackenbush, J. & Trajanoski, Z. Genesis: cluster analysis of microarray data. Bioinformatics 18, 207-208 (2002); Huang da, W., Sherman, B. T. & Lempicki, R. A. Systematic and integrative analysis of large gene lists using DAVID bioinformatics resources. Nat Protoc 4, 44-57 (2009)).

O=c1c(O)c(-c2ccc(O)cc2)oc2c(O)c(O)cc(O)c12 [herbacetin, 3,5,7,8,4′-Pentahydroxyflavone]
ODC activity (release of CO2 from L-[1-C^14] ornithine) (ODC): inhibited ODC activity similarly
cell proliferation and anchorage independent colony formation [1]: decrease cell proliferation and anchorage independent colony formation
effectiveness relative to DFMO in suppressing anchorage independent growth ([2]; HCT116, 2 weeks): at least 20 fold
potency relative to DFMO ([2]; general statement, test not specified): 20-50 times
phosphorylation of ERK1/2 and p90^RSK (ERK1/2, p90^RSK): suppressed phosphorylation
inhibitory effect on growth of colon cancer cell lines ([3]; 72 h, MTS, HCT116, DLD1, HT29): greatest inhibitory effect on colon cancer cells that expressed higher levels of ODC
proliferation and anchorage independent cell growth of several colon cancer cell lines ([3]; preliminary data): decrease proliferation and anchorage independent cell growth
AP-1 reporter activity [4]: attenuated
size (volume) of solar UV-induced skin tumors [5]: significantly decreased
promoter activities of activator protein-1, Cox2, NF-kappaB [6]: suppress promoter activities
direct suppression of ERKs/RSK2 signaling (ERKs/RSK2 signaling): does not occur directly through the suppression of ERKs/RSK2 signaling
gene expression [7]: significantly altered genes involved in proliferation, cell cycle, apoptosis and metabolic processes
